# Like-named read-outs stand apart in the source and are kept apart here.
# Key:
# [1] = system: Parastagonospora nodorum; assay: in vitro-Test with fungal microorganisms, Method A (tables H1-H4); type: cell-based
# Method in brief: (§1)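 Growth inhibition was measured photometrically at 620 nm 3–5 days after application, with 100% efficacy meaning no growth and 0% meaning growth equal to the untreated control. Fungal spore or mycelium suspension in potato dextrose broth was added onto solvent-evaporated compound and incubated at 20° C and 85% relative humidity.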
# [2] = system: Cercospora beticola; assay: in vitro-Test with fungal microorganisms, Method A (tables C1-C10); type: cell-based
# Method in brief: as §1
# [3] = system: Cordana musae; assay: in vitro-Test with fungal microorganisms, Method A (tables E1-E8); type: cell-based; details: Neocordana musae
# Method in brief: as §1
# [4] = system: Fusarium culmorum; assay: in vitro-Test with fungal microorganisms, Method A (tables G1-G4); type: cell-based; details: Fusarium culmorum, alone, read-out: Efficacy
# Method in brief: as §1
# [5] = system: Parastagonospora nodorum; assay: in vitro-Test with fungal microorganisms, Method B (tables H5-H8); type: cell-based; details: Parastagonospora nodorum
# Method in brief: (§2)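 Efficacy, relative to untreated control (0% = growth as in control, 100% = no growth), from photometric growth measurement at 600 nm after 3 to 7 days at 20° C., 85% relative humidity. Compound applied in methanol+emulsifier, solvent evaporated, then spore/mycelium-amended liquid medium added.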
# [6] = system: Fusarium culmorum; assay: in vitro-Test with fungal microorganisms, Method B (tables G5-G15); type: cell-based; details: Fusarium culmorum, read-out: Efficacy
# Method in brief: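 Steps: solvent evaporation leaves the compound coating the wells; fungus-inoculated liquid growth medium goes on top; absorbance at 600 nm is measured; incubation runs 3 to 7 days at 20° C. with 85% relative humidity. Inhibition is then read photometrically and expressed as efficacy against untreated control.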
# [7] = system: Colletotrichum lindemuthianum; assay: in vitro-Test with fungal microorganisms, Method A (tables D1-D8); type: cell-based; details: Colletotrichum lindemuthianum
# Method in brief: as §1
# [8] = system: Alternaria alternata; assay: in vitro-Test with fungal microorganisms, Method B (tables A13-A22); type: cell-based; details: Alternaria alternata
# Method in brief: as §2
# [9] = system: Ustilago segetum var. avenae; assay: in vitro-Test with fungal microorganisms, Method B (tables I6-I11); type: cell-based; details: read-out: Efficacy %
# Method in brief: as §2
# [10] = system: Ustilago segetum var. avenae; assay: in vitro-Test with fungal microorganisms, Method A (tables I1-I5); type: cell-based
# Method in brief: as §1
# [11] = system: Cercospora beticola; assay: in vitro-Test with fungal microorganisms, Method B (tables C11-C20); type: cell-based; details: Cercospora beticola, read-out: Efficacy %
# Method in brief: as §2
# [12] = system: Botrytis cinerea; assay: in vitro-Test with fungal microorganisms, Method A (tables B1-B14); type: cell-based; details: Botrytis cinerea
# Method in brief: as §1
# [13] = system: Diaporthe citri; assay: in vitro-Test with fungal microorganisms, Method A (tables F1-F11); type: cell-based; details: Diaporthe citri
# Method in brief: as §1
# [14] = system: Diaporthe citri; assay: in vitro-Test with fungal microorganisms, Method B (tables F12-F15); type: cell-based
# Method in brief: as §2
# [15] = system: Colletotrichum coccodes; assay: in vitro-Test with fungal microorganisms, Method B (tables J1-J11); type: cell-based; details: Colletotrichum coccodes
# Method in brief: as §2
# [16] = system: Cordana musae; assay: in vitro-Test with fungal microorganisms, Method B (tables E9-E16); type: cell-based; details: for Efficacy %: single substance
# Method in brief: as §2
# [17] = system: Alternaria alternate; assay: in vitro-Test with fungal microorganisms, Method A (tables A1-A12); type: cell-based, Alternaria alternata
# Method in brief: as §1
# [18] = read-out: Efficacy %, mixing partner alone, 0.04 ppm
# [19] = read-out: Efficacy %, mixing partner alone, 0.2 ppm
# [20] = read-out: Efficacy %, mixing partner alone, 1.0 ppm
# [21] = read-out: Efficacy %, mixing partner alone, 5.0 ppm
# [22] = read-out: Efficacy %, alone, 1.0 ppm
# [23] = read-out: Efficacy %, alone, 5.0 ppm
smiles,measurement,setting,value
"N#Cc1c[nH]cc1-c1cccc2c1OC(F)(F)O2 [(13.001) fludioxonil, fludioxonil]",Efficacy,[1]; 0.04 ppm,0%
same,Efficacy,[1]; 0.2 ppm,0%
same,Efficacy,"[1]; single active compound, 0.04 ppm",0%
same,Efficacy,"[1]; single active compound, 0.2 ppm",0%
same,Efficacy,"[1]; single active compound, 1.0 ppm",38%
same,Efficacy,"[1]; single active compound, 5.0 ppm",64%
same,Efficacy %,[2]; 5.0 ppm alone,98%
same,inhibition of growth at 0.04 ppm,"[2]; Cercospora beticola, read-out: Efficacy %, 0.04 ppm",0%
same,inhibition of growth at 0.04 ppm,"[2]; Cercospora beticola, read-out: Efficacy %, 0.04 ppm alone",0%
same,inhibition of growth at 0.2 ppm,"[2]; Cercospora beticola, read-out: Efficacy %, 0.2 ppm alone",14%
same,inhibition of growth at 1 ppm,"[2]; Cercospora beticola, read-out: Efficacy %, 1.0 ppm",55%
same,inhibition of growth at 5 ppm,"[2]; Cercospora beticola, read-out: Efficacy %, 5.0 ppm",90%
same,inhibition of growth at 5 ppm,"[2]; Cercospora beticola, read-out: Efficacy %, 5.0 ppm alone",93%
same,inhibition of growth at 0.04 ppm,[3]; [18],2%
same,inhibition of growth at 0.2 ppm,[3]; [19],0%
same,inhibition of growth at 1 ppm,[3]; [20],83%
same,inhibition of growth at 5 ppm,[3]; [21],55%
same,inhibition of growth at 0.04 ppm,"[3]; read-out: Efficacy %, single substance, 0.04 ppm",0%
same,inhibition of growth at 0.2 ppm,[4]; 0.2 ppm,36%
same,inhibition of growth at 1 ppm,[4]; 1.0 ppm,98%
same,inhibition of growth at 5 ppm,[4]; 5.0 ppm,99%
same,inhibition of growth at 1 ppm,"[5]; read-out: Efficacy, 1 ppm",58%
same,inhibition of growth at 5 ppm,"[5]; read-out: Efficacy, 5 ppm",98%
same,inhibition of growth at 0.04 ppm,[6]; alone,0%
same,inhibition of growth at 0.2 ppm,[6]; alone,22%
same,inhibition of growth at 1 ppm,[6]; alone,68%
same,inhibition of growth at 5 ppm,"[6]; 5 ppm, alone",98%
same,inhibition of growth at 0.04 ppm,[6]; single active compound,0%
same,inhibition of growth at 0.2 ppm,[6]; single active compound,26%
same,inhibition of growth at 1 ppm,[6]; single active compound,88%
same,inhibition of growth at 0.04 ppm,[7]; [18],11%
same,inhibition of growth at 0.2 ppm,[7]; [19],60%
same,inhibition of growth at 1 ppm,[7]; [20],85%
same,inhibition of growth at 5 ppm,[7]; [21],90%
same,inhibition of growth at 0.04 ppm,"[7]; read-out: Efficacy %, single active at 0.04 ppm",0%
same,inhibition of growth at 0.2 ppm,"[7]; read-out: Efficacy %, single active at 0.2 ppm",58%
same,inhibition of growth at 5 ppm,"[7]; read-out: Efficacy %, single active at 5.0 ppm",88%
same,inhibition of growth at 1 ppm,"[8]; read-out: Efficacy, 1 ppm",88%
same,inhibition of growth at 5 ppm,"[8]; read-out: Efficacy, 5 ppm",100%
same,inhibition of growth at 0.04 ppm,"[8]; read-out: Efficacy, single compound, 0.04 ppm",13%
same,inhibition of growth at 0.2 ppm,"[8]; read-out: Efficacy, single compound, 0.2 ppm",18%
same,inhibition of growth at 5 ppm,"[8]; read-out: Efficacy, single compound, 5 ppm",99%
same,inhibition of growth at 0.04 ppm,[9],55%
same,inhibition of growth at 0.2 ppm,[9],93%
same,inhibition of growth at 5 ppm,[9],100%
same,inhibition of growth at 0.04 ppm,"[10]; read-out: Efficacy %, alone, 0.04 ppm",19%
same,inhibition of growth at 1 ppm,[10]; [22],100%
same,inhibition of growth at 5 ppm,[10]; [23],100%
same,inhibition of growth at 5 ppm,[11],93%
same,inhibition of growth at 0.2 ppm,"[12]; read-out: Efficacy %, alone, 0.2 ppm",100%
same,inhibition of growth at 1 ppm,[12]; [22],100%
same,inhibition of growth at 5 ppm,[12]; [23],100%
same,inhibition of growth at 0.04 ppm,"[12]; read-out: Efficacy, 0.04 ppm",19%
same,inhibition of growth at 0.2 ppm,"[12]; read-out: Efficacy, 0.2 ppm",100%
same,inhibition of growth at 0.04 ppm,"[13]; read-out: Efficacy, applied alone, 0.04 ppm",0%
same,inhibition of growth at 0.2 ppm,"[13]; read-out: Efficacy, applied alone, 0.2 ppm",0%
same,Efficacy,"[14]; Table F12, 0.2 ppm alone",0%
same,Efficacy,"[14]; Table F12, 1 ppm alone",9%
same,Efficacy,"[14]; Table F13, 1 ppm alone",41%
same,Efficacy,"[14]; Table F13, 5 ppm alone",0%
same,inhibition of growth at 0.04 ppm,"[15]; read-out: Efficacy %, 0.04 ppm",54%
same,inhibition of growth at 1 ppm,"[15]; read-out: Efficacy %, 1 ppm",100%
same,inhibition of growth at 5 ppm,"[15]; read-out: Efficacy %, 5 ppm",100%
same,inhibition of growth at 0.04 ppm,"[15]; read-out: Efficacy %, single active compound at 0.04 ppm",74%
same,inhibition of growth at 0.04 ppm,"[16]; Neocordana musae, read-out: Efficacy",6%
same,Efficacy %,[16]; 0.2 ppm,0%
same,Efficacy %,[16]; 1 ppm,0%
same,Efficacy %,[16]; 5 ppm,11%
same,inhibition of growth at 0.04 ppm,"[17]; Alternaria, read-out: Efficacy %, applied alone, 0.04 ppm",9%
same,inhibition of growth at 0.2 ppm,"[17]; Alternaria, read-out: Efficacy %, applied alone, 0.2 ppm",17%
same,inhibition of growth at 1 ppm,"[17]; Alternaria, read-out: Efficacy %, applied alone, 1.0 ppm",97%
same,inhibition of growth at 5 ppm,"[17]; Alternaria, read-out: Efficacy %, applied alone, 5.0 ppm",100%
same,Efficacy %,"[17]; applied alone, 0.04 ppm",0%
